Laboratory results as given in patent US8729097B2, “Quinoline compounds as inhibitors of angiogenesis, human methionine aminopeptidase, and SIRT1, and methods of treating disorders” (The Johns Hopkins University, priority 2008, dated 2014).
Read-outs that look alike come from different tables or passages of the source.

Key:
[1] = test system: HUVEC; assay: HUVEC proliferation, [3H]-thymidine incorporation assay; type: cell-based, human
Protocol: (§1) HCC1954 cells were grown in RPMI1640 containing 10% FBS. HUVEC were grown using the EGM-2 bullet kit (Cambrex) as per manufacturer's instructions. The cells were maintained in a humidified incubator adjusted to 5% CO2. For drug screening, 10 mM stock solutions of Johns Hopkins Drug Library were arrayed in 96-well plates and screened at a final concentration of 10 μM. The cell growth was determined using a [^3H]-thymidine incorporation assay. Cells (typically 5,000 cells/well) were seeded in 96-well plates containing 0.2 ml of growth media and allowed to adhere for 24 h. The cells were then treated with drugs for 24 h. Cells were pulsed with 1 μCi [^3H]-thymidine (MP Biomedicals, 6.7 Ci mmol^−1) for 8 h and harvested, upon trypsin treatment, onto glass fiber filters (Wallac, Turku, Finland), from which ^3H counts were determined using a Perkin Elmer MicroBeta plate reader.

[2] = molecular target: T1, hMetAP2 (Homo sapiens, UniProt P50579); assay: MetAP enzymatic assay, hMetAP2; type: biochemical
T1 construct: made in house
T1 sequence (P50579 whole entry): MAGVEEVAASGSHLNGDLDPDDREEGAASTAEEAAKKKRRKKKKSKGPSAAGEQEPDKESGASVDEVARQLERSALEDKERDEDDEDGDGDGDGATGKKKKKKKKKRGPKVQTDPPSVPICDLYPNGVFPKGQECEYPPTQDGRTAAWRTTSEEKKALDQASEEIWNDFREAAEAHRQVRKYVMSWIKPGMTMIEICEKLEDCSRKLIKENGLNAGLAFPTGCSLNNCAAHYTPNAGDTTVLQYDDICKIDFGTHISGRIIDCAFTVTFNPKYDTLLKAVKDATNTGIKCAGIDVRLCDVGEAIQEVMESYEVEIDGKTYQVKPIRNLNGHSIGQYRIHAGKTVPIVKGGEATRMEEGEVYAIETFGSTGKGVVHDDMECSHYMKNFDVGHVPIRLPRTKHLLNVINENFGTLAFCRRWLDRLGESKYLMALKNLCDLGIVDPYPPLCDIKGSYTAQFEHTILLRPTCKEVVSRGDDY

[3] = molecular target: T2, hMetAP1 (Homo sapiens, UniProt P53582); assay: MetAP enzymatic assay, hMetAP1; type: biochemical
T2 construct: made in house

[4] = test system: HFF; assay: HFF proliferation (selectivity); type: cell-based
[5] = test system: HUVEC; assay: Senescence associated-β-galactosidase (SA-β-gal) staining in HUVEC; type: cell-based, human
Protocol: Cells in 6-well plates were washed with PBS and fixed with 3% paraformaldehyde. After washing with PBS, the cells were incubated for 24 h at 37° C. (without CO2, protected from light) in freshly prepared SA-β-gal staining solution containing 1 mg/ml 5-bromo-4-chloro-3-indolyl β-D-galactopyranoside (X-gal), 5 mM potassium ferrocyanide, 5 mM potassium ferricyanide, 150 mM NaCl, 2 mM MgCl2 and 40 mM citric acid, titrated with NaH2PO4 to pH 6.0. SA-β-gal solution was then removed and the cells were washed with PBS. The stained cells were observed under a microscope.

[6] = test system: p53 and Rb pathways in HUVECs; assay: Western blot of p53, p21 and Rb in HUVEC; type: cell-based, human
Protocol: (§2) Cells were lysed by adding 1 volume of 2× Laemmli buffer and were then boiled for 5 min. The samples were separated by SDS-PAGE and transferred to nitrocellulose membrane (Bio-Rad). Proteins were detected using primary antibodies for p53 (Santa Cruz), met-14-3-3γ (Novus), p21 (Santa Cruz), Rb (Santa Cruz), MetAP2 (Hu, X. et al (2006) Proc. Natl. Acad. Sci. U.S.A. 103, 18148-18153), SirT1 (Santa Cruz), acetyl-p53-K382 (Abeam), acetyl-tubulin (Sigma), histone-H3 (Santa Cruz), acetyl-H3 (Santa Cruz) and α-tubulin (TU-02, Santa Cruz) followed by the incubation with horseradish peroxidase (HRP)-conjugated anti-mouse or anti-rabbit antibodies (Santa Cruz) and enhanced chemiluminescence (ECL, Amersham).

[7] = test system: N-terminal methionine processing of 14-3-3γ by hMetAP2; assay: N-terminal methionine processing of 14-3-3γ in HUVEC (Western blot); type: cell-based, human; settings: 10 nM
Protocol: 14-3-3γ is known as a substrate of eukaryotic MetAPs and the inhibition of either isotype of MetAPs was reported to increase the N-terminal methionyl form of the protein.
Cells were lysed by adding 1 volume of 2× Laemmli buffer and were then boiled for 5 min. The samples were separated by SDS-PAGE and transferred to nitrocellulose membrane (Bio-Rad).

[8] = test system: HUVEC; assay: Endothelial cell tube formation assay; type: cell-based, human; settings: Matrigel; EX527 1 μM, TNP470 10 nM
Protocol: HUVEC were seeded on a 96-well plate (2×10^4 cells/well) coated with Matrigel. The cells were then incubated for 16˜18 h in a humidified 5% CO2 incubator at 37° C. The cells were washed carefully with PBS once and Calcein-AM solution in PBS was then added to a final concentration of 2 μM. After incubation for an additional 30 min, the cells were washed carefully with PBS and observed under a fluorescence microscope (485 nm excitation/520 nm emission). The tube formed was quantified using AngioQuant v1.33 (The MathWorks).

[9] = test system: Saccharomyces cerevisiae strain BY4743; assay: Yeast growth assay (wild type, map1Δ, map2Δ); type: cell-based; settings: drug on paper disc
Description: Saccharomyces cerevisiae strain BY4743 (MATa/α his3Δ1/his3Δ1 leu2Δ0/leu2Δ0 lys2Δ0/LYS2) and its isogenic haploid derivatives for MetAP1 (map1Δ) and MetAP2 (map2Δ) deletion mutants were used for yeast growth assays. Drugs dissolved in DMSO were spotted onto sterile filter disks and dried before experiments. Exponentially growing yeast strains were mixed with top agar and plated on YPD (1% yeast extract/2% peptone/2% glucose) plates. The filter disks were then placed on the YPD plates containing yeasts and the incubation was continued for 48 h at 30° C.

[10] = test system: breast cancer cells as well as human umbilical vein endothelial cells (HUVECs); assay: Cell proliferation assay, breast cancer cells and HUVECs; type: cell-based
Protocol: Cell proliferation assay was performed using several different kinds of breast cancer cells as well as human umbilical vein endothelial cells (HUVECs). […].
as §1

[11] = test system: acetylation of p53 (K382), α-tubulin and histone-H3; assay: Acetylation status of sirtuin substrates in HUVEC (Western blot); type: cell-based, human; settings: HUVEC
Protocol: as §2

[12] = Table 3, in the presence of Co^2+, read-out: hMetAP1 Co^2+ IC50
[13] = Table 3, in the presence of Mn^2+, read-out: hMetAP1 Mn^2+ IC50
[14] = Table 3, read-out: Selectivity HUVEC IC50
[15] = 72 h, valproic acid 0.1 mM, TNP-470 20 nM
[16] = hMetAP2 Co^2+ IC50, Table 2, in the presence of Co^2+
[17] = Homo sapiens, HUVEC, read-out: Selectivity HUVEC IC50

CC(C)(C)OC(=O)Oc1ccc([N+](=O)[O-])c2cccnc12 [Entry 5c, 5-Nitro-8-tert-butoxycarbonyloxyquinoline]
IC50 ([1]; Homo sapiens, HUVEC, Table 4, read-out: HUVEC IC50): 0.29 µM

O=C(Nc1cc(Cl)cc(Cl)c1)Oc1c(Cl)cc(Cl)c2cccnc12 [Entry 4b, 5,7-Dichloro-8-quinolyl-N-(3,5-dichlorophenyl)-carbamate]
IC50 ([2]; Table 3, in the presence of Co^2+, read-out: hMetAP2 Co^2+ IC50): > 50 µM
IC50 ([2]; Table 3, in the presence of Mn^2+, read-out: hMetAP2 Mn^2+ IC50): 0.9 µM
IC50 [3, 12]: > 50 µM
IC50 [3, 13]: > 50 µM
IC50 ([4]; Table 3): 3 µM
IC50 [1, 14]: 0.11 µM

CCCC(CCC)C(=O)O [valproic acid]
premature senescence in HUVEC [5, 15]: induced premature senescence
reversibility of senescence ([5]; 72 h treatment, then fresh media for an additional 48 h): reversed their senescence state

CO[C@@H]1[C@H](OC(=O)NC(=O)CCl)CC[C@]2(CO2)[C@H]1[C@@]1(C)O[C@@H]1CC=C(C)C [TNP-470]
Rb hyperphosphorylation ([6]; 8% SDS-PAGE): inhibited its hyperphosphorylation
total amount of Rb protein ([6]; 12% SDS-PAGE): increased the total amount of Rb protein
processing of 14-3-3γ by hMetAP2 [7]: completely blocked
HUVEC tube formation [8]: did not inhibit tube formation
growth of MetAP-1 deletion mutant (map1Δ) ([9]; map1Δ): significantly inhibited
growth of MetAP-2 deletion mutant ([9]; map2Δ): did not affect the growth
growth of wild-type yeast ([9]; wild type): did not inhibit the yeast growth
endothelial selectivity over other types of cancer cell lines [10]: around 1,000 fold
premature senescence in HUVEC [5, 15]: did not induce premature senescence
premature senescence in HUVEC ([5]; 5 days, single compound or drug combination): did not

O=C(NCCCl)Oc1c(Cl)cc(Cl)c2cccnc12 [Entry 4i, 5,7-Dichloro-8-quinolyl-N-(2-chloroethyl)-carbamate]
IC50 [3, 12]: > 50 µM
IC50 [3, 13]: > 50 µM
IC50 ([4]; Table 3): 11.1 µM
IC50 [1, 14]: 2.4 µM

Oc1cccc2cccnc12 [Entry 1a]
IC50 [2, 16]: > 50 µM
IC50 ([2]; hMetAP2 Mn^2+ IC50, Table 2, in the presence of Mn^2+): 2 µM
IC50 ([3]; read-out: hMetAP1 Co^2+ IC50, Table 2, in the presence of Co^2+): > 50 µM
IC50 ([4]; Homo sapiens, HFF, Table 2): 6.6 µM
IC50 [1, 17]: 6.2 µM

OCCN(CCO)Cc1cc(Cl)c2cccnc2c1O [Entry 2a, 5-Chloro-7-(N,N-bis(2-hydroxyethyl)aminomethyl)-8-hydroxy-quinoline]
IC50 ([2]; Table 2, in the presence of Co^2+, read-out: hMetAP2 Co^2+ IC50): > 50 µM
IC50 ([3]; Table 2, in the presence of Co^2+, read-out: hMetAP1 Co^2+ IC50): > 50 µM
IC50 ([3]; Table 2, in the presence of Mn^2+, read-out: hMetAP1 Mn^2+ IC50): > 50 µM

O=S(=O)(O)c1ccc(O)c2ncccc12 [Entry 1d]
IC50 [2, 16]: > 50 µM
IC50 ([4]; Homo sapiens, HFF, Table 2): > 50 µM
IC50 [1, 17]: > 50 µM

O=C(NCCCl)Oc1ccc(Cl)c2cccnc12 [Entry 4h, 5-Chloro-8-quinolyl-N-(2-chloroethyl)-carbamate]
IC50 ([4]; Table 3): 8.4 µM
IC50 [1, 14]: 2.3 µM

CC(/C=C/C(=O)NO)=C\[C@@H](C)C(=O)c1ccc(N(C)C)cc1 [TSA]
acetylation status of tubulin or histone-H3 ([11]; 6 h or 20 h): induced hyper-acetylation
p53 acetylation ([11]; early time point): increased p53 acetylation

CCOC(=O)COc1ccc([N+](=O)[O-])c2cccnc12 [Entry 5d, Ethyl 1-(5-Nitro-quinolin-8-yloxy)-acetate]
IC50 ([1]; Table 4, read-out: HUVEC IC50): 7.3 µM
